From patent US10912749B2, “Conjugate acid salt of N,N-dimethylglycine with organic acid, and composition and use thereof” (GUANGZHOU INSIGHTER BIOTECHNOLOGY CO., LTD., priority 2017, dated 2021)
Where a name gives a salt, the structure may show the parent alone. Marks after values point to notes of the source that are not given here.

Columns and labels:
[1] = High-humidity stability test; assay type: physicochemical; conditions: for hygroscopicity (in words): 25° C. and RH 95%, weight gains at day 5 turned the samples into water-like status; for hygroscopic weight gain Day 5 (%) / hygroscopic weight gain Day 10 (%): 25° C., RH 95%±1%, mean value±standard error, three parallels
Method: Method: A KNO3 saturated solution (25° C., […]) was placed in the lower part of a constant-temperature and constant-humidity sealed container. The test samples, three parallels for each test sample, were placed at 25° C. and RH 95%±1% for 10 days, and their average weight gains were measured at day 5 and day 10.

[2] = system: Sanhuang broilers; test: Breeding experiment in broiler feed (production performance); assay type: in vivo
Method: The experiment was carried out by single-factor randomized design. 1080 22-day-old Sanhuang broilers having similar body weight (averagely 153 g) were collected and randomly divided into 9 groups, 6 replicates in each group, 20 broilers in each replicate, with equal numbers of males and females. The henhouse and utensils were disinfected before the experiment. The broilers were kept in cages in the same henhouse under the same breeding conditions during the experiment. The basic diets mainly composed of corn and soybean meal, and no other antioxidant ingredients and growth promoters were added during the whole breeding process. The groups included a blank group, a control group, and experiment groups 1-7. […] For each replicate, the broilers were weighed (stopped feeding for 12 hours while water supply was maintained) at 42-day-old and their feed consumptions were recorded so as to calculate the average daily feed intake (ADFI), average daily weight gain (ADG) and feed conversion ratio (FCR). The experiment data were analyzed with SPSS18 software. The data were first analyzed by single factor analysis of variance (ANOVA), and if the differences between the groups were significant, multiple comparisons were performed using Duncan's method wherein the significance level was 0.05.

[3] = system: grass carps; test: Growth promotion experiment in aquatic feed; assay type: in vivo; conditions: 450 ppm in feed, 8 weeks; for SR (%): survival rate
Method: Test fish: The experiment fish were grass carps, born at the year of the test, from Dafeng hatchery in Huizhou City, Guangdong Province. Healthy and lively grass carps of the same size were reared in big net cages (4×2×1.5 m^3) for four weeks before the breeding experiment. The experiment system included floating small net cages (1.1×1.1×1.1 m^3), each small net cage was provided with an aerator and aerated 24 hours every day. […] 384 fish which were similar in body weight and had been starved for 1 day were randomly divided into 8 groups, 4 replicates in each group and 12 fish in each replicate. The fish of each replicate were weighed and transferred to […] net cages, and fed with different test feeds respectively.
Experiment feeds: The experiment feeds were prepared according to Table 6. The groups were respectively provided with different conjugate acid salts of N,N-dimethylglycine with metal and organic acid in the same concentration according to Table 7. Raw materials of the feed were ultra-pulverized, and then turned into floating expanded feed having a particle size of 3 mm by using a feed extruder from Jiangsu Muyang Group Co., Ltd. wherein the extruding temperature was 130° C., and 3% of soybean oil was sprayed on the feed using an oil sprayer. The feed was then sealed and stored in a cool place for later use.
Test management: The experiment was carried out with diet restriction, the diet amount was adjusted once a week, the feeding level (based on initial weight) of each group was exactly the same, and feeding was conducted twice every day (at 7:30 and 15:00). The experiment was carried out for 8 weeks. During the experiment, water quality was monitored regularly to maintain the following conditions: water temperature 26.88±3.08° C., DO>5.0 mg O L^−1, pH 7.8, ammonia nitrogen <0.50 mg N L^−1, and nitrite nitrogen <0.05 mg N L^1.
Parameter statistics: In the experiment, the fish in each net cage were weighed as a whole after starved for 1 day so as to calculate their weight gain (WG, %), feed conversion ratio (FCR) and survival rate (SR, %), through the following formula. Weight gain (WG, %)=100×(average final weight−average initial weight)/average initial weight Feed conversion ratio (FCR)=feed intake/fish weight gain Survival rate (SR, %)=100×fish amount at the end of the test/fish amount at the beginning of the test

| Compound | hygroscopicity (in words) [1] | hygroscopic weight gain Day 5 (%) [1] [%] | hygroscopic weight gain Day 10 (%) [1] [%] | breeding effect with respect to feed conversion efficiency compared with sodium N,N-dimethylglycinate [2] | (FCR) [3] | Final weight [3] [g] | Weight gain (%) [3] [%] | SR (%) [3] |
| --- | --- | --- | --- | --- | --- | --- | --- | --- |
| CN(C)CC(=O)O.Cl [Sample 1, N,N-dimethylglycine hydrochloride] | very high hygroscopicity | 79.86 ± 0.94 | 80.69 ± 0.59 |  |  |  |  |  |
| CN(C)CC(=O)[O-].[Na+] [Sample 2, Sodium N,N-dimethylglycinate] | very high hygroscopicity | 49.09 ± 1.14 | 52.44 ± 0.48 |  |  |  |  |  |
| CN(C)CC(=O)[O-].CN(C)CC(=O)[O-].O=C(O)c1ccccc1.O=C(O)c1ccccc1.[Ca+2] [Sample 5, Conjugate acid salt of calcium N,N-dimethylglycinate with benzoic acid] |  |  | 3.69 ± 0.28 | equivalent to that of sodium N,N-dimethylglycinate | 1.48 ± 0.03 | 586.87 ± 10.44 | 134.96 ± 2.82 | 83.10 ± 3.65^b % |
| CN(C)CC(=O)[O-].CN(C)CC(=O)[O-].O=C(O)/C=C/C(=O)O.[Ca+2] [Sample 6, Conjugate acid salt of calcium N,N-dimethylglycinate with fumaric acid] |  |  |  |  | 1.48 ± 0.03 | 589.33 ± 12.75 | 138.98 ± 3.02 | 83.90 ± 5.30^b % |
| CCCCCCCCCCCCCC(=O)O.CCCCCCCCCCCCCC(=O)O.CN(C)CC(=O)[O-].CN(C)CC(=O)[O-].[Ca+2] [Sample 7, Conjugate acid salt of calcium N,N-dimethylglycinate with tetradecanoic acid] |  |  | 3.06 ± 0.29 |  | 1.46 ± 0.04 | 585.22 ± 11.23 | 134.40 ± 2.90 | 73.00 ± 3.63^b % |
| CN(C)CC(=O)[O-].CN(C)CC(=O)[O-].O=C(O)c1ccccc1.O=C(O)c1ccccc1.[Cu+2] [Sample 8, Conjugate acid salt of copper N,N-dimethylglycinate with benzoic acid] |  |  |  |  | 1.41 ± 0.03 | 598.68 ± 9.66 | 143.40 ± 10.09 | 80.04 ± 3.80^b % |
| CN(C)CC(=O)[O-].CN(C)CC(=O)[O-].O=C(O)/C=C/C(=O)O.[Cu+2] [Sample 9, Conjugate acid salt of copper N,N-dimethylglycinate with fumaric acid] |  |  |  |  | 1.43 ± 0.03 | 598.12 ± 9.27 | 139.12 ± 2.34 | 83.96 ± 5.68^b % |
| CN(C)CC(=O)[O-].CN(C)CC(=O)[O-].O=C(O)c1ccccc1.O=C(O)c1ccccc1.[Zn+2] [Sample 10, Conjugate acid salt of zinc N,N-dimethylglycinate with benzoic acid] |  |  |  |  | 1.45 ± 0.03 | 597.66 ± 9.69 | 133.08 ± 4.70 | 78.04 ± 4.21^b % |
| CN(C)CC(=O)[O-].CN(C)CC(=O)[O-].O=C(O)/C=C/C(=O)O.[Zn+2] [Sample 11, Conjugate acid salt of zinc N,N-dimethylglycinate with fumaric acid] |  |  |  |  | 1.44 ± 0.02 | 600.00 ± 9.30 | 139.98 ± 3.58 | 84.94 ± 4.26^b % |
| CN(C)CC(=O)[O][Zn][O]C(=O)CN(C)C [Sample 11, Conjugate acid salt of zinc N,N-dimethylglycinate with fumaric acid] |  |  | 2.88 ± 0.22 |  |  |  |  |  |
| Calcium N,N-dimethylglycinate [Sample 3] | very high hygroscopicity | 38.40 ± 0.22 | 41.83 ± 0.35 |  |  |  |  |  |
